Assay results: publication PMC10433220, “Oil palm kernel globulin antihypertensive peptides: isolation and characterization, ACE inhibition mechanisms, zinc-chelating activity, security and stability” (Frontiers in Pharmacology, 2023)
Like-named read-outs stand apart in the source and are kept apart here. Blank lines part the entries; values can stand above or below the compound they belong to. Where no end group is shown, it is not given here.

Experiments:
ACE [1] = molecular target: T1, ACE (Oryctolagus cuniculus, UniProt P12822); set-up: method as in 2 sources, one per row (each row's own in cited_ref): ref Wang et al., 2021 ||| ref Wei et al., 2022; conditions: cited from earlier work
T1 construct: purchased Sigma (St. Louis, MO, United States)
T1 sequence (P12822 34-1310): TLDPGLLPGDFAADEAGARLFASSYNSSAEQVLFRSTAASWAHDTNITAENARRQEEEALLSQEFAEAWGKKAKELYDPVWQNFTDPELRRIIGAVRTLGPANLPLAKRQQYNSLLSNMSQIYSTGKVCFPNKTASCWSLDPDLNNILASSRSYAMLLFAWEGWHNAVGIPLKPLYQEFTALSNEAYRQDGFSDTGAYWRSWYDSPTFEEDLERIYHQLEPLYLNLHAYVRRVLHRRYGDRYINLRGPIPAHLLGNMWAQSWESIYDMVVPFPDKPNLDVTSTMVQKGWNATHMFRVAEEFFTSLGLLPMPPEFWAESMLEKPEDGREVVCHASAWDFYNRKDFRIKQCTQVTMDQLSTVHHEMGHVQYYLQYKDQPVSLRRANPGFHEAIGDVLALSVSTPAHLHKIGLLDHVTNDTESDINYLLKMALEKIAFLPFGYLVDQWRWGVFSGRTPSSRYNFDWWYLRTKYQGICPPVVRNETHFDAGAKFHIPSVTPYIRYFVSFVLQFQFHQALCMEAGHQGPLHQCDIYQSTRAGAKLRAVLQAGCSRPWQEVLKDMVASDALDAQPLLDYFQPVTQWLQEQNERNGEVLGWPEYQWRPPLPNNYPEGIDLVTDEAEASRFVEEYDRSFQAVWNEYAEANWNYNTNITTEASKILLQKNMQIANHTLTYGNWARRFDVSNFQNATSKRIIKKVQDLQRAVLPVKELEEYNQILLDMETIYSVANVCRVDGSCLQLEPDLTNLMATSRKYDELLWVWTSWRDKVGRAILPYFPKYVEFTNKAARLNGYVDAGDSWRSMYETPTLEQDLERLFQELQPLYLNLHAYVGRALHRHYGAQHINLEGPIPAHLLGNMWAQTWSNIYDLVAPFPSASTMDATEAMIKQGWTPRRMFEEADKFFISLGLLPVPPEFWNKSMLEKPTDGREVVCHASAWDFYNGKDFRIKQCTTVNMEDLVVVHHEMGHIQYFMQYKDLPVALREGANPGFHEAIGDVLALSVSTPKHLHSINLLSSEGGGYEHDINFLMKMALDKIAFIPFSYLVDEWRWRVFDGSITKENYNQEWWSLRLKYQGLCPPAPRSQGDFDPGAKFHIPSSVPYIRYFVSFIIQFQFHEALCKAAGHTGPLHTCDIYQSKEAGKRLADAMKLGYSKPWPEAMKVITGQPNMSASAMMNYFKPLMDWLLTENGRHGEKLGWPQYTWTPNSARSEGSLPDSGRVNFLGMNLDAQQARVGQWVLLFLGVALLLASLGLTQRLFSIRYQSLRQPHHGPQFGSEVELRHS

[2] = Zinc solubility of peptide-Zn complexes during simulated gastrointestinal digestion; assay type: in vitro ADME; conditions: simulated intestinal digestion, from 120 to 240 min; p < 0.05
Protocol: Simultaneously, 5 mg of the DOPKGH peptide-Zn complexes was mixed with 50 mL of simulated gastric digested mucus (pH 2.00 ± 0.10) ([Sun et al., 2021]). After shaking at 37°C and 135 rpm for 90 min, Na2HPO4 (0.5 mol/L) was added and the mixture was quickly stirred until the pH of the digest increased to 6.80 ± 0.10. […] The stability of DOPKGH peptide-Zn complexes was expressed as the residual zinc concentration after digestion and as a percentage of the zinc concentration before digestion.

ACE [3] = molecular target: T1, ACE; conditions: Val residue at the N-terminal; peptide from King Bolete mushrooms; ref Kaprasob et al., 2022; cited from earlier work
Source text: Moreover, Lys or Arg residues in C-terminal tripeptide are instrumental in the ACE-inhibitory ability of peptides ([Urbizo-Reyes et al., 2022]).

ACE [4] = molecular target: T1, ACE; assay: Stability of ACE inhibitory activity under simulated gastrointestinal hydrolysis; assay type: in vitro ADME
Protocol: (§1) ACE inhibitory activity was determined using the procedure described by [Zaharuddin et al. (2022)]. Briefly, ACE (25 mU) was pre-incubated at 37°C for 10 min. Then ACE (75 µL), 225 µL of HHL (8.3 mmol/L), and the peptide solution (75 µL) were mixed and stirred at 75 rpm and 37°C for 60 min. The reaction was stopped by adding 375 µL of HCl (1 mol/L). Afterward 2.1 mL of ethyl acetate was added to extract the hippuric acid produced. The mixture was centrifuged at 14,000 g for 150 s. Subsequently, 1 mL of the upper solution (ethyl acetate extraction) was transferred to a glass test tube and heated at 120°C for 32 min. The tube was cooled to 25°C, deionized water (1 mL) was added, and the absorbance was measured at 228 nm. The control group was subjected to the same procedure, but without samples. The ACE inhibition ability of the samples was defined as the percentage of the difference in absorbance at 228 nm between the sample and control as compared to the absorbance at 228 nm of the control. The concentration of peptides required to inhibit half of the ACE activity was defined as the IC50.
The simulation intestinal digest mucus (pH 6.80 ± 0.10) was composited of 6 g bile salt, 0.07 g pancreatin, 12.5 g NaHCO3, and 200 mL ultrapure water. […] The ACE inhibitory activity of the DOPKGH peptide was determined using untreated DOPKGH peptides for comparison.

ACE [5] = molecular target: T1, ACE; assay: ACE inhibitory activity (HHL substrate, hippuric acid absorbance at 228 nm); assay type: biochemical; conditions: synthesized peptide, untreated; ACE 25 mU, HHL 8.3 mmol/L, 37°C, 60 min, absorbance 228 nm; from regression y = 10.985 ln(x) ‒ 0.8859, R2 = 0.9458; read-out: ACE inhibition capacity (IC50)
Protocol: as §1

[6] = Zn-chelating ability (4-(2-Pyridinazo)-resorcinol method); assay type: physicochemical; conditions: 350 μg sample, zinc sulfate 0.25 mmol/L, DTT, HEPES-KOH buffer, 37°C, 12 min, PAR method, absorbance 500 nm; mean ± SD, at least three repeats
Protocol: DOPKGH peptides (350 μg), 0.5 mL zinc sulfate solution (0.25 mmol/L), 0.5 mL DTT (8 mmol/L), 1 mL HEPES-KOH buffer (100 μmol/L), and 8 mL dH2O were mixed thoroughly ([Li et al., 2023]). After stirring at 175 r/min and 37°C for 12 min, the zinc concentration of the reaction solution was measured using the 4-(2-Pyridinazo)-resorcinol method ([Udechukwu et al., 2018]). The standard regression curve of the zinc concentration (x, μg/mL) with absorbance at 500 nm (y) was y = 0.0901n(x) + 0.1012, and R^2 = 0.9802 ([Li et al., 2023]). The zinc chelation rate was defined as the reduction of zinc ions in the reaction solution per unit mass of sample (mg/g).
Amino acid sequence identification was conducted using a Q Exactive hybrid quadrupole orbitrap mass spectrometer (Thermo Fisher, Bremen, Germany) coupled with Peak-Studio-7.5-De-Novo™ software (Bioinformatics Solutions, Inc., Waterloo, Canada) according to the method described by [Li et al. (2022)]. The DOPKGH sequences were verified by matching with the sequences of Elaeis guineensis recorded in the Biotechnology Information Database (Bethesda, MD, United States). The Zn-chelating ability of the obtained sequences was measured using the 4-(2-Pyridinazo)-resorcinol method ([Udechukwu et al., 2018]). […] In addition, the physicochemical characteristics of the screened DOPKGH sequences were analyzed using the AHTPDB database.

Compound: PHQPLPP
- ACE inhibition IC50 (ACE [1]; peptide identified in rubing cheese, ref Wei et al., 2022): 821 µg/mL

Compound: O=C([O-])[C@H](O)[C@@H](O)[C@H](O)[C@H](O)CO.O=C([O-])[C@H](O)[C@@H](O)[C@H](O)[C@H](O)CO.[Zn+2] [zinc gluconate, Zinc gluconate]
- Zinc solubility compared with zinc sulfate [2]: higher zinc solubility than that of zinc sulfate

Compound: GNPLSP
- IC50 (ACE [1]; peptide derived from Arthrospira platensis, ref Wang et al., 2021, read-out: ACE inhibition IC50): 264 µM

Compound: VSWNVLQEP [literature peptide identified in King Bolete mushrooms]
- Binding energy with ACE (ACE [3]): -9.1 kcal/mol

- ACE-inhibitory activity retained after gastrointestinal digestion (ACE [4]; simulated gastric (pepsin, pH 2.0, 80 min) then intestinal (pancreatin, pH 6.8, 150 min) digestion, 37°C, versus untreated peptide): 71.23%
- IC50 (ACE [4]; simulated gastric digest (pepsin 0.35 mg/mL, pH 2.0) 37°C 80 min, then intestinal digest (pancreatin, bile salt, pH 6.8) 37°C 150 min, regression y = 13.536ln(x) ‒ 17.297, R2 = 0.9528, read-out: IC50 against ACE after gastrointestinal digestion): 144 µM
- IC50 (ACE [5]): 103 µM
Compound: EVPQAYIP

Compound: QRLERCK [Gln-Arg-Leu-Asp-Arg-Cys-Lys, oligopeptide identified in defatted oil palm kernel globulin hydrolysates]
- Zinc chelating capacity [6]: 17.30 ± 1.46^g mg/g
